We go through eleven compounds from patent publication US10428030B2, “Heterocycle derivatives and their use for the treatment of CNS disorders” (Trillium Therapeutics Inc., priority 2015, dated 2019).

The subject of series [1] is mouse. The note with it: literature report; cited from earlier work.
Series [2] deals with mouse. The note with it: literature report; cited from earlier work. The source holds these as a separate data set.
For series [3], the system named is Frings audiogenic seizure-susceptible mice. Put plainly: Frings audiogenic seizure (AGS)-susceptible mouse model. It counts as in vivo. The note with it: Mus musculus, ip, sound-induced seizures. The text has this: Frings audiogenic seizure (AGS)-susceptible mice model examines the ability of an investigational drug to alter the onset and/or severity of seizures in a genetic mouse model of seizure susceptibility. Mice are genetically susceptible to sound-induced reflex seizures. Their seizure phenotype is characterized by wild running, loss of righting reflex, tonic flexion, and tonic extension in response to high-intensity sound stimulation. […] For example, the prototypical anticonvulsants phenytoin and ethosuximide display widely divergent clinical spectrums in humans, but are both active against sound-induced seizures in mice. Yet, the preclinical utility of this animal model rests in the useful information that can be obtained within a genetically susceptible model of seizures. Further, efficacy in this model provides proof of concept of brain bioavailability following systemic administration. The Frings AGS-susceptible mouse has a well-validated epilepsy phenotype that makes it particularly useful as a screening model. Beginning at about 21 days of age, Frings AGS-susceptible mice display prominent seizure activity in response to a high-intensity sound stimulus. They then remain susceptible to sound throughout their life. This is in stark contrast to the DBA2J AGS-susceptible mouse, which is the other common model of sound-induced seizures, as DBA2J mice are only susceptible to sound-induced seizures during a narrow developmental window (post-natal days 18-30). Thus, the Frings AGS-susceptible mouse seizures respond to a wide range of CNS-active drugs and display sound-induced seizures throughout their lifetime. In this regard, Frings AGS-susceptible mice are a highly useful screening model for the identification and characterization of compounds potentially effective against inherited epilepsy.
Male and female Frings audiogenic seizure-susceptible mice (18-25 g) are maintained in an in-house colony at the University of Utah. For each screening test, groups of 8 mice each are treated i.p. with varying doses of the investigational compound. At the time of peak effect as determined in the MES test (Test 4 in CF1 mice), individual mice are placed in a round plexiglass jar (diameter, 15 cm, height, 18 cm) and exposed to a sound stimulus of 110 decibels (11 KHz) delivered for 20 sec. Mice are observed for 25 sec for the presence or absence of hind limb tonic extension. Mice not displaying hind limb tonic extension are considered protected. The severity of a seizure may also be quantitated by assigning a numerical score to the observed response, e.g. no response—0; wild running for <10 sec—1; wild running for >10 sec—2; clonic seizure—3; forelimb extension/hind limb flexion—4; tonic seizure—5.

A further series has as its system Male Sprague-Dawley rats. The experiment in a line: Maximal Electroshock Seizure (MES) rat model. To be noted: po, 4 hours. It counts as in vivo. The method, then: (§1) Male, Sprague-Dawley rats and CD-1 mice were used for all studies. All animals were allowed ad-lib access to food and water except during experiment. Animals were housed within an animal vivarium maintained under a 12 h light:dark cycle (lights on: 07:00 h), and all experiments were conducted in the animals light phase. For all experiments, animals were habituated to the vivarium for a minimum of 72 h before experimentation. The experimental procedures used in the present investigation were conducted under the Association for Assessment and Accreditation of Laboratory Animal Care (AAALAC) and the Canadian Council on Animal Care (CCAC) guidelines.
(§2) All compounds were sonicated in 5% Tween 80® in saline or methylcellulose 0.5% (wgt/vol), using MC and sterile water and injected in a dose volume of 5 ml/kg or 10 ml/kg (rat), and 10 ml/kg (mouse). Drugs were administered by either the oral, intraperitoneal or intravenous route.
Male Sprague-Dawley rats of body weight 80-100 g were used for these studies. Each experiment was conducted over 3 consecutive days. On day 1 and 2, each rat received a single electrical stimulus (150 mA, 0.2 s duration, 60 Hz) via corneal electrodes moistened with saline (Shock stimulator type 221: Harvard apparatus). […] Typically this reflected approximately 70-90% of the initial group.
(§3) On the test day following a defined drug pretreatment period, rats received a maximal electroshock (150 mA, 0.2 s duration, 60 Hz) via corneal electrodes. Protection was defined as absence of a full tonic seizure within 10 s of stimulus delivery. Twenty minutes before the MES procedure, the animals were tested on a fixed speed rotorod (best score from 3 trials at 8 r.p.m, trial duration=60 s) to give an early assessment of drug effect on gross motor function.

A further series concerns CD-1 mice. Put plainly: s.c Pentylenetetrazole (PTZ) mouse model. To be noted: ip, PTZ 85 mg/kg s.c. It counts as in vivo. As for the experimental part:
as §1, §2
Sixty minutes following drug or vehicle pretreatment, all mice received a single subcutaneous injection of pentylenetetrazol (PTZ; 85 mg/kg). The animals were then transferred to single observation cages (dimension: 11.5″×7.5″×5″) and observed continuously for 30 min. […] In the event of a seizure, the onset latency from PTZ injection was recorded.

For series [4], the system named is Frings audiogenic seizure-susceptible mice. The note with it: general statement on prototypical anticonvulsants; cited from earlier work.
A short description of series [5]: Fixed speed rotorod, gross motor function (rat). To be noted: male, Sprague-Dawley, in vivo, po. As for the experimental part:
as §3

The next series concerns MTLE mice. The experiment in a line: Model of mesial temporal lobe epilepsy (mTLE), hippocampal paroxysmal discharges. In kind it is in vivo, mouse. To be noted: after 600 mg/kg, mice 4 weeks after intra-hippocampal KA. The source says: The MTLE mouse model recapitulates many of the characteristics observed in human patients with temporal lobe epilepsy (TLE). The MTLE mouse is characterized by an initial neurotoxic event, a unilateral intrahippocampal injection of kainic acid (KA) into the dorsal hippocampus, which induces non-convulsive SE lasting several hours. This initial event is followed by a latent phase. Two to three weeks after KA injection, spontaneous recurrent hippocampal paroxysmal discharges (HPD) are only recorded in the epileptic hippocampus and remain stable and stereotyped for the whole life of the animal. These HPDs occur spontaneously about 30-60 times per hour when the animals are in a state of quiet wakefulness, generally last 15-20 sec and are associated with behavioral arrest and/or mild motor automatisms. Adult, male […] mice are stereotaxically injected with kainate (1 nmol in 100 nL) and implanted with 1 bipolar electrode in the dorsal hippocampus, and then allowed to recover for four weeks prior to evaluation in the screening protocol. Using a group size of 4 MTLE mice per dose of investigational compound, the compounds are typically first tested using the 6 Hz 44 mA ED50 value. […] For all acute studies, drug conditions are counter-balanced in MTLE mice over a two week period using a Latin square dosing protocol. Animals are used as their own controls. Digital EEG recordings are performed on freely moving animals for 20 minutes pre-injection (reference period) and 90 minutes post-injection. Data are analyzed for the period of 10 minutes before and 10 minutes after peak time of effect of the investigational compound, as determined from the 6 Hz 44 mA seizure test. The effects of the injected compound are compared to the reference period. Any accompanying effect on animal behavior is noted. Data are presented as the raw number of HPDs during the analyzed 20 min period (10 minutes before and 10 minutes after peak time of effect of compound) for each MTLE mouse, group mean number of HPDs, and effect on suppression as represented by percent of baseline HPD values.

`O=C1CCc2cc(OCc3ccccc3)ccc2N1`: in the series with mouse [1], the “activity in pentylenetetrazole (PTZ) model” value was “active”. Also, in the series with mouse [2], the “activity in mouse electroshock seizure (MES) model” value is given as “active”.
On to `NC(=O)N1c2ccccc2C=Cc2ccccc21` [Carbamazepine], for which the 50% effect level in series [3] (ED50) was put at a dose of 11.2 mg/kg.
Consider `O=C1COc2cc(OCc3ccccc3)ccc2N1` [Compound 1, 7-Benzyloxy-4H benzo[1,4]oxazin-3-one, reference compound], for which the ED50 with Male Sprague-Dawley rats and in the series with CD-1 mice was above 300 mg/kg each time.
With `CCC1(C)CC(=O)NC1=O` (centres unmarked) [Ethosuximide], the ED50 in series [3] was found to be 328 mg/kg. For the same compound, in series [4], the “activity against sound-induced seizures in mice” value is reported as “active”.
The compound `NC(=O)OCC(COC(N)=O)c1ccccc1` [Felbamate] came in with an ED50 in series [3] of 10 mg/kg.
On the same count and under the same terms, with `NCC1(CC(=O)O)CCCCC1` [Gabapentin] the figure was 91.1 mg/kg.
Compound `O=C1Nc2ccc(OCc3ccccc3)cc2OC1(F)F` [I(D), 7-Benzyloxy-2,2-difluoro-4H-benzo[1,4]oxazin-3-one] showed an ED50 in the series on Male Sprague-Dawley rats of 30.5 ± 0.8 mg/kg. Besides, the ED50 at 4 hours in series [5] is above 120 mg/kg.
In the case of `Nc1nnc(-c2cccc(Cl)c2Cl)c(N)n1` [Lamotrigine], in series [3], it took a dose of 2.39 mg/kg to reach the 50% effect level (ED50).
As for `CC[C@@H](C(N)=O)N1CCCC1=O` [Levetiracetam, reference compound], the “Effect (% baseline)” value with MTLE mice (HPD) was determined as 68.7 % baseline. Also, the “Mean HPD Counts” value with MTLE mice was determined as 14.3.
In series [3], `O=C1NC(=O)C(c2ccccc2)(c2ccccc2)N1` [Phenytoin] gave an ED50 of 3.8 mg/kg. The “activity against sound-induced seizures in mice” value in series [4] is “active”.
Compound `CCCC(CCC)C(=O)O` [Valproic Acid] displayed an ED50 in series [3] of 155 mg/kg.
